Each structure is given as a SMILES string.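 Growth conditions: 96-well plates. Treatment: test compound, 48 hours, 5 concentrations. Analysis: linear interpolation between bracketing concentrations; unreached endpoints set to highest concentration. TGI is the concentration that stops growth completely.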 Bounds are passed on as bounds.

The source of these data is PubChem BioAssay (NCI).

Among the test systems are HCC-2998 colon; MALME-3M melanoma; EKVX NSCLC; OVCAR-8 ovarian; MDA-MB-435; HCT-116 colon; 786-0 renal; MOLT-4 leukemia; K-562 leukemia; U251 CNS.
What all share (test): NCI-60 cell line screen, 48 h

`O=C(N[C@H]1CCC[C@H]1C(=O)Nc1ccc(C(F)(F)F)cc1)OCc1ccccc1`: the TGI in the assay on HCC-2998 colon, with MALME-3M melanoma, with EKVX NSCLC, in the assay on OVCAR-8 ovarian, with MDA-MB-435 and in the assay with HCT-116 colon was greater than 100 µM each time. Further, the TGI in the assay with 786-0 renal, with MOLT-4 leukemia, in the assay with K-562 leukemia and with U251 CNS was greater than 100 µM each time.

Regarding `Cc1cc2oc3c(ccc(=O)n3C)c(=O)c2c(C)c1Cl`, the TGI in the assay with HCC-2998 colon, with MALME-3M melanoma, in the assay on EKVX NSCLC, in the assay on OVCAR-8 ovarian, in the assay on MDA-MB-435 and with HCT-116 colon was greater than 100 µM each time. For the same compound, the TGI in the assay with K-562 leukemia and in the assay with U251 CNS was greater than 100 µM throughout.

On to `O=C1c2cc3c(cc2CC1Cc1ccc2c(c1)CCC2)CCC3` (stereo unspecified), for which the TGI in the assay on HCC-2998 colon, with MALME-3M melanoma, in the assay with EKVX NSCLC, in the assay on OVCAR-8 ovarian, in the assay with MDA-MB-435 and in the assay with HCT-116 colon was greater than 100 µM in each case. For the same compound, the TGI with MOLT-4 leukemia, in the assay on K-562 leukemia and in the assay on U251 CNS was greater than 100 µM in each case.

Consider `OC1(c2ccc(Cl)cc2)c2c(c3ccccc3c3ccccc23)C2=NCCN21` (stereo unspecified), for which the TGI with HCC-2998 colon is 6.85 µM; in the assay with MALME-3M melanoma, 40.1 µM; in the assay on EKVX NSCLC, 35.4 µM; in the assay on OVCAR-8 ovarian it was 28.5 µM; with MDA-MB-435, greater than 100 µM; in the assay on HCT-116 colon it was 25.7 µM. For the same compound, the TGI was 15.2 µM with 786-0 renal, greater than 100 µM with MOLT-4 leukemia, greater than 100 µM in the assay on K-562 leukemia and 30.8 µM in the assay with U251 CNS.

As to `CC(=O)OCC1OC(n2c(N)c(C#N)c(-c3cccc(Cl)c3)c(C#N)c2=S)C(OC(C)=O)C(OC(C)=O)C1OC(C)=O` (stereo unspecified), the TGI in the assay on HCC-2998 colon is 22.7 µM; with MALME-3M melanoma, greater than 100 µM; in the assay on EKVX NSCLC, greater than 100 µM; with OVCAR-8 ovarian, 39.9 µM; with MDA-MB-435, 50 µM; in the assay with HCT-116 colon, 94 µM. In addition, the TGI was 60.5 µM in the assay on 786-0 renal, 51.5 µM in the assay on MOLT-4 leukemia, greater than 100 µM in the assay on K-562 leukemia and 78.9 µM with U251 CNS.

For `O=C1CC(C(COCc2ccccc2)OCc2ccccc2)CC(=O)N1` (stereo unspecified), the TGI with HCC-2998 colon, with MALME-3M melanoma, in the assay with EKVX NSCLC, with OVCAR-8 ovarian, in the assay with MDA-MB-435 and in the assay on HCT-116 colon was greater than 100 µM throughout. Besides, the TGI in the assay with 786-0 renal, with MOLT-4 leukemia, in the assay with K-562 leukemia and in the assay on U251 CNS was greater than 100 µM throughout.

Take `CN(/N=C/c1ccc(Cl)cc1)C1=NCCCCN1`: the TGI with HCC-2998 colon, with MALME-3M melanoma, in the assay with EKVX NSCLC, in the assay on OVCAR-8 ovarian, in the assay with MDA-MB-435 and in the assay on HCT-116 colon was greater than 100 µM in each case. For the same compound, the TGI with 786-0 renal, in the assay on MOLT-4 leukemia, in the assay with K-562 leukemia and with U251 CNS was greater than 100 µM each time.

In the case of `CC(=O)N1C(Nc2cccc3nc(C)ccc23)CCN1c1ccccc1` (stereo unspecified), the TGI in the assay on HCC-2998 colon, in the assay on MALME-3M melanoma, in the assay on EKVX NSCLC, in the assay with OVCAR-8 ovarian, in the assay on MDA-MB-435 and in the assay on HCT-116 colon was greater than 10 µM in each case. Besides, the TGI in the assay on 786-0 renal, in the assay with MOLT-4 leukemia and in the assay on K-562 leukemia was greater than 10 µM each time.

Regarding `CCn1c(=O)c2c3ccc(OC)cc3[nH]c2c2ccc(OC)cc21`, the TGI in the assay on HCC-2998 colon was 62.7 µM; in the assay on MALME-3M melanoma, greater than 100 µM; in the assay on EKVX NSCLC, greater than 100 µM; with OVCAR-8 ovarian, greater than 100 µM; in the assay on MDA-MB-435, greater than 100 µM; in the assay on HCT-116 colon it was greater than 100 µM. In addition, the TGI with 786-0 renal, in the assay on MOLT-4 leukemia, with K-562 leukemia and in the assay with U251 CNS was greater than 100 µM each time.

With `CC(=O)O[C@H]1C[C@](C)(O)[C@@]23CC([C@@H](OC(=O)C(C)(C)O)[C@@H](OC(C)=O)C2(COC(=O)c2ccccc2)[C@H]1OC(C)=O)C(C)(C)O3` (stereo partly specified), the TGI in the assay with HCC-2998 colon, with MALME-3M melanoma, in the assay on EKVX NSCLC, in the assay on OVCAR-8 ovarian, with MDA-MB-435 and in the assay with HCT-116 colon was greater than 100 µM each time. Further, the TGI in the assay on 786-0 renal, in the assay with MOLT-4 leukemia, in the assay on K-562 leukemia and in the assay on U251 CNS was greater than 100 µM in each case.

For `CC(=O)c1[nH]c(Nc2ccc(C)cc2)c(C(=S)Nc2ccccc2)c1N`, the TGI with HCC-2998 colon stood at 56.5 µM; in the assay with MALME-3M melanoma, 31.9 µM; in the assay with EKVX NSCLC, 96.7 µM; in the assay on OVCAR-8 ovarian, 39.4 µM; in the assay with MDA-MB-435, 30.9 µM; in the assay on HCT-116 colon, 35.4 µM. In addition, the TGI in the assay on 786-0 renal is 34.3 µM; with MOLT-4 leukemia, greater than 100 µM; with K-562 leukemia, 72.2 µM; with U251 CNS it was 29.9 µM.

As for `Cc1ccc(N=C2SC(=NN(C)C)SC2=Nc2ccc(C)cc2)cc1`, the TGI in the assay with HCC-2998 colon, in the assay on MALME-3M melanoma, in the assay with EKVX NSCLC, in the assay on OVCAR-8 ovarian, in the assay with MDA-MB-435 and with HCT-116 colon was greater than 100 µM throughout. Further, the TGI in the assay with 786-0 renal, in the assay with MOLT-4 leukemia, with K-562 leukemia and in the assay on U251 CNS was greater than 100 µM in each case.

`COc1ccc(N2N=NN(C(C)C)/C2=C(/Cl)c2nnnn2-c2ccc(OC)cc2)cc1`: the TGI with HCC-2998 colon was 34.4 µM; in the assay with MALME-3M melanoma, 24.7 µM; with EKVX NSCLC it was 36.1 µM; with OVCAR-8 ovarian, 18 µM; in the assay with MDA-MB-435 it was 25.5 µM; with HCT-116 colon it was 14.1 µM. The TGI with 786-0 renal was 7.06 µM; in the assay on MOLT-4 leukemia, 14.8 µM; in the assay with K-562 leukemia, greater than 32.5 µM; in the assay on U251 CNS, 33.7 µM.
